Structures can show the parent of a compound that is named as a salt.
Experiments:
[1] = target: T1, recombinant human MC4 receptor (Homo sapiens, UniProt P32245); experiment: Affinity for the MC4-receptor, displacement of 125I-NDP-MSH in transfected Sf9 or COS cells; details: nb = non-binding, i.e. no affinity, read-out: Affinity for MC-receptors, Ki, MC4
T1 construct: expressed in transfected cells; host or cells: Sf9 insect cells or COS cells
Method: (§1) Test 2. Affinity for the MC3-Receptors, the MC4-Receptors and the MC5-Receptors
(§2) Essentially, the affinity of the compounds for the different melanocortin receptors were determined by using either insect cells (Sf9) or COS cells, which were transfected with recombinant human MC3, MC4 or MC5 receptors. For the determination of the affinity for the MC1 receptor, B16 mouse melanoma cells were used, which endogenously express the (mouse) MC1 receptor.
(§3) Incubation was performed in 96-well plates, using 50,000 cells/well (Sf9 or COS cells) up to 200,000 cells/well (mouse melanoma cells).
(§4) After the incubation, the cells were washed twice to get rid of the excess tracer and compound, and the cells were lysed with 0.1 M NaOH. The lysate was counted in a gamma-counter, binding was calculated and the affinity determined.

[2] = target: T2, MC1 receptor (Mus musculus, UniProt Q01727); experiment: Affinity for the MC1-receptor, displacement of 125I-NDP-MSH in B16 mouse melanoma cells; details: endogenous mouse MC1, nb = non-binding, i.e. no affinity, read-out: Affinity for MC-receptors, Ki, MC1
T2 construct: B16 mouse melanoma cells were used, which endogenously express the (mouse) MC1 receptor; endogenous in cells; host or cells: B16 mouse melanoma cells
Method: Test 1. Affinity for the MC1-Receptor
as §2, §3, §4

[3] = target: T3, recombinant human MC3 receptor (Homo sapiens, UniProt P41968); experiment: Affinity for the MC3-receptor, displacement of 125I-NDP-MSH in transfected Sf9 or COS cells; details: nb = non-binding, i.e. no affinity, read-out: Affinity for MC-receptors, Ki, MC3
T3 construct: expressed in transfected cells; host or cells: Sf9 insect cells or COS cells
Method: as §1, §2, §3, §4

[4] = target: T4, recombinant human MC5 receptor (Homo sapiens, UniProt P33032); experiment: Affinity for the MC5-receptor, displacement of 125I-NDP-MSH in transfected Sf9 or COS cells; details: nb = non-binding, i.e. no affinity, read-out: Affinity for MC-receptors, Ki, MC5
T4 construct: expressed in transfected cells; host or cells: Sf9 insect cells or COS cells
Method: as §1, §2, §3, §4

T3 sequence (P41968 whole entry): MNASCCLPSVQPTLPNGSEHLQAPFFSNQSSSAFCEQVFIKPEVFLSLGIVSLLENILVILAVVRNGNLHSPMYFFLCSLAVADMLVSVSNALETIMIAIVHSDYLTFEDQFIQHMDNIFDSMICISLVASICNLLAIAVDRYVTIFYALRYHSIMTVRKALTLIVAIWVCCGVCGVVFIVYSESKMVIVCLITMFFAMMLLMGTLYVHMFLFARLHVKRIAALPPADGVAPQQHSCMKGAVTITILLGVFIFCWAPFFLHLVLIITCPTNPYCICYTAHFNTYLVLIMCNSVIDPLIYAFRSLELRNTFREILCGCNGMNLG
T4 sequence (P33032 whole entry): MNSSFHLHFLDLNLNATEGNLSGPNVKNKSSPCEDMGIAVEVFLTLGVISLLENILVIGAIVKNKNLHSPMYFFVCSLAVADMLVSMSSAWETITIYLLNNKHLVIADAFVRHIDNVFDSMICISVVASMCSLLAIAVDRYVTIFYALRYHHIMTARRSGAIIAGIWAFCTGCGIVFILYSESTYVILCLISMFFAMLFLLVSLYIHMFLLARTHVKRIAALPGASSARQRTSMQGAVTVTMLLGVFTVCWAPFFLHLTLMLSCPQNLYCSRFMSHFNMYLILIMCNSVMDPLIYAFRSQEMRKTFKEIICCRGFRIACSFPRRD
T2 sequence (Q01727 whole entry): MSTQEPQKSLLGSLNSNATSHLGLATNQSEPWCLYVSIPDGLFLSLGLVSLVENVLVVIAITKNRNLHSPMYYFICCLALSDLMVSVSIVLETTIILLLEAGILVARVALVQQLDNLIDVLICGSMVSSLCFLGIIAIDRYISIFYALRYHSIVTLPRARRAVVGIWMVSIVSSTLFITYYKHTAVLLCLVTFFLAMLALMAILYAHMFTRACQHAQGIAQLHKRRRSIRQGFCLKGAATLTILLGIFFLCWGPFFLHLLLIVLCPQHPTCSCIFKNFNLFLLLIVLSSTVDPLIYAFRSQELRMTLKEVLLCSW
T1 sequence (P32245 whole entry): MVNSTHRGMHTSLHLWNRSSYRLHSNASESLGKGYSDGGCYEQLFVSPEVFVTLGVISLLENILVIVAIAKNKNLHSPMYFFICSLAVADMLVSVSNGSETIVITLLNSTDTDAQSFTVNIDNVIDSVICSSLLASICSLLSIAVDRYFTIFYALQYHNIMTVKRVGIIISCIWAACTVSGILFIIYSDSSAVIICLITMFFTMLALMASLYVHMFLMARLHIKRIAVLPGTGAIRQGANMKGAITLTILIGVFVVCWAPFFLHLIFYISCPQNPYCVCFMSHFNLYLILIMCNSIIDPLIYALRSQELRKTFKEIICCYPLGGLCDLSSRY

SMILES	melting point	Ki [1]	Ki [2]	Ki [3]	Ki [4]
N=C(N)NN=Cc1ccccc1Br (as salt: HCl) [1:14, N-(2-Bromobenzylideneamino)guanidine]	197 to 201 °C	–	–	–	–
N=C(N)NN=Cc1cc(O)ccc1Br (as salt: HCl) [1:15, N-(2-Bromo-5-Hydroxybenzylideneamino)guanidine]	223 to 228 °C (dec.)	–	–	–	–
N=C(N)NN=Cc1cc2c(cc1[N+](=O)[O-])OCO2 (as salt: salt) [1:17, N-(4,5-Methylenedioxy-2-nitrobenzylideneamino)guanidine]	205 to 212 °C (dec.)	–	–	–	–
N=C(N)NN=Cc1cccc(Br)c1 (as salt: salt) [1:21, N-(3-Bromobenzylideneamino)guanidine]	160 to 161.5 °C	–	–	–	–
N=C(N)NN=Cc1ccccc1Br [1:14, N-(2-Bromobenzylideneamino)guanidine]	–	0.9 µM	0.6 µM	74.6 µM	–
N=C(N)NN=Cc1cc(O)ccc1Br [1:15, N-(2-Bromo-5-Hydroxybenzylideneamino)guanidine]	–	6.8 µM	1.3 µM	–	68 µM
N=C(N)NN=Cc1cc2c(cc1[N+](=O)[O-])OCO2 [1:17, N-(4,5-Methylenedioxy-2-nitrobenzylideneamino)guanidine]	–	28 µM	2.1 µM	> 200 µM	> 200 µM
N=C(N)NN=Cc1cccc(Br)c1 [1:21, N-(3-Bromobenzylideneamino)guanidine]	–	5.4 µM	1.2 µM	46 µM	30.6 µM

Source: US20040106683A1, “Uses of benzylideneamino guanidines as ligands to the melnocortin receptors” (priority 2001, published 2004)
